# Reference: US20250340563A1, “FUSED PYRIDAZINE DERIVATIVES AS NLRP3 INHIBITORS” (Takeda Pharmaceutical Company Limited, priority 2022, published 2025)
# Experiments:
# MDR1 (P-gp) = target: T1, MDR1 (P-gp) (Homo sapiens, UniProt P08183); assay: MDCK-MDR1 assay (apparent permeability and efflux ratio); assay type: in vitro ADME; conditions: dog; for efflux ratio at 60 min, 1 µM: pH 7.4, MDCK-MDR1, P-gp mediated efflux ratio, read-out: MDR1 ER; for Papp A→B at 60 min, 1 µM: MDCK-MDR1 monolayer, apical to basolateral, pH 7.4, 60 minutes
# T1 construct: expressed in transfected cells; host or cells: Madin-Darby Canine Kidney (MDCK) cells
# Method: Madine-Darby Canine Kidney (MDCK) cells transfected with Multidrug resistance protein 1 (MDR1) are maintained in accordance with the provider's instructions in Dulbecco's Modified Eagle media (DMEM, Fisher Scientific Cat #10569044). DMEM is supplemented with 10% heat inactivated fetal bovine serum (Gibco Cat #16000-044), Penicillin-Streptomycin (100 units/mL) (Gibco Cat #15140122) and an inducer of P-gp, colchicine (200 nM) (Sigma Cat #C9754). The cells are seeded onto the apical side of HTS-Transwell-96 Plates (0.4 μm pore size, Corning Cat #3381) at a density of 6.25×10^3 cells per well with 75 μL and 250 μL of DMEM media in apical and basolateral wells, respectively, and are incubated at 37° C./5% CO2. Fresh DMEM media is exchanged in the apical and basolateral compartments after 72 hours and cells are allowed to grow into a monolayer for 144 hours before beginning the experimental incubation. Incubations are performed in Hanks' Balanced Salt Solution (HBSS, Fisher Scientific Cat #14025134) at pH 7.4 with 1% Bovine Serum Albumin (Sigma, Cat #A9418) and 10 mM HEPES (Fisher Scientific, Cat #15630080). DMEM media is removed and cells are rinsed with warm (37° C.) HBSS. HBSS with test compound at 1p M substrate concentration (0.1% v/v DMSO) is added to either the apical or basolateral compartment (75 μL or 250 μL, respectively) and blank HBSS buffer is added to the compartment which lacks test compound in singlicate. The cells are incubated for 60 minutes at 37° C./5% CO2. At the end of the incubation period, 50 μL of sample is removed from each receiver compartment and diluted into 150 μL of acetonitrile (Fisher Scientific, Cat #A996SK4)+0.1% formic acid (Sigma, Cat #F0507). The samples are centrifuged at 2000 rcf for 10 minutes at 4° C., after which 100 μL of supernatant is transferred to a new microplate and diluted with 100 μL of HPLC grade water (Fisher Scientific, Cat #W64). Samples are analyzed using a triple quadrupole mass spectrometer API-5500QTrap (ABSciex, Serial No. AU23291006) along with associated autosampler and high performance liquid chromatography pump instrumentation optimized for the detection of test articles through a Kinetix 2.1×50 mm C18 100 Å column (Phenomenex, Cat #00B-4605-AN).
# Apparent permeability (Papp) values and efflux ratio are calculated using the following equations: […]
# NF-κB pathway = assay: TNF-α assay in IFN-γ-differentiated, LPS-stimulated THP-1 cells (ELISA); assay type: cell-based; conditions: Homo sapiens, 50 ng/mL LPS, 3 hours
# Procedure, shortened: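 THP-1 cells differentiated with 25 ng/mL IFN-γ for 24 h, then preincubated 30 min at 37 °C with compound (1:3.16 serial dilutions) in serum-free medium. Stimulated with 50 ng/mL LPS for 3 h; supernatant assayed by human TNF-α ELISA. IC50 from four-parameter logistic fit of % inhibition.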
# NLRP3 inflammasome = NLRP3 inflammasome (Homo sapiens, UniProt Q96P20); assay: IL-1β assay in IFN-γ-differentiated, LPS-primed, ATP-activated THP-1 cells (ELISA); assay type: cell-based; conditions: 50 ng/mL LPS priming, 2.5 mM ATP activation, 2 hours
# Procedure, shortened: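 Supernatant IL-1β is quantified by ELISA after 2 h of 2.5 mM ATP stimulation at 37 °C, with IC50 taken from a four-parameter fit of % inhibition. Before this, THP-1 macrophages (25 ng/mL IFN-γ, 24 h) were LPS-primed (50 ng/mL, 24 h, no FBS) and exposed to serially diluted compound for 30 min.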
# Sequence of NLRP3 inflammasome (Q96P20 whole entry): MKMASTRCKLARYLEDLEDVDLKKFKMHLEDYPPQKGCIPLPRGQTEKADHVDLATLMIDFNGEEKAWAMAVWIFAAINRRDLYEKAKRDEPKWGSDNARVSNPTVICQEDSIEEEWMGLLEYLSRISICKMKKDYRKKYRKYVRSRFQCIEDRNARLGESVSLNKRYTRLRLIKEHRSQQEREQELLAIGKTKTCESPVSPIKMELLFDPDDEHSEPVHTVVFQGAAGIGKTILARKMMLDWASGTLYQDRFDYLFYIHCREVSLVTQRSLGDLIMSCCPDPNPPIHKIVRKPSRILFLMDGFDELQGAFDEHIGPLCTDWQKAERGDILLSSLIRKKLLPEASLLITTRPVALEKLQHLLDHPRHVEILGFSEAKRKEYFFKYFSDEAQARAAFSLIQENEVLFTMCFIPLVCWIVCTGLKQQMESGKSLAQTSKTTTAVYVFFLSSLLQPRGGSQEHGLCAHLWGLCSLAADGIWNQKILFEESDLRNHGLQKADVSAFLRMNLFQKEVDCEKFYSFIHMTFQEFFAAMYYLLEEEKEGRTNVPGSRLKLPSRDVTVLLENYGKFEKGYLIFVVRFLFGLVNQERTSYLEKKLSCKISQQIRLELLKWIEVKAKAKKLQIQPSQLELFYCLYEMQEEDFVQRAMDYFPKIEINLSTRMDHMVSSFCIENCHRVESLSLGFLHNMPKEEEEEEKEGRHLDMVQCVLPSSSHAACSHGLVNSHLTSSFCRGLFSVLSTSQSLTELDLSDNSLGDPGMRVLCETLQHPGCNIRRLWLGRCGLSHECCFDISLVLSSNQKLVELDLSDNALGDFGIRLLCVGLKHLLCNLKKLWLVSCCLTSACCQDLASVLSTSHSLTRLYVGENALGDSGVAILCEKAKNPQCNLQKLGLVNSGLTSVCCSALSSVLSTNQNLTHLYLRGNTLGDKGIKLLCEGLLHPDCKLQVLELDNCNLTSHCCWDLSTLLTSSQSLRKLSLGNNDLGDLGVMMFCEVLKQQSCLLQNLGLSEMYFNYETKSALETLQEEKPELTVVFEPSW
# T1 sequence (P08183 whole entry, species assumed): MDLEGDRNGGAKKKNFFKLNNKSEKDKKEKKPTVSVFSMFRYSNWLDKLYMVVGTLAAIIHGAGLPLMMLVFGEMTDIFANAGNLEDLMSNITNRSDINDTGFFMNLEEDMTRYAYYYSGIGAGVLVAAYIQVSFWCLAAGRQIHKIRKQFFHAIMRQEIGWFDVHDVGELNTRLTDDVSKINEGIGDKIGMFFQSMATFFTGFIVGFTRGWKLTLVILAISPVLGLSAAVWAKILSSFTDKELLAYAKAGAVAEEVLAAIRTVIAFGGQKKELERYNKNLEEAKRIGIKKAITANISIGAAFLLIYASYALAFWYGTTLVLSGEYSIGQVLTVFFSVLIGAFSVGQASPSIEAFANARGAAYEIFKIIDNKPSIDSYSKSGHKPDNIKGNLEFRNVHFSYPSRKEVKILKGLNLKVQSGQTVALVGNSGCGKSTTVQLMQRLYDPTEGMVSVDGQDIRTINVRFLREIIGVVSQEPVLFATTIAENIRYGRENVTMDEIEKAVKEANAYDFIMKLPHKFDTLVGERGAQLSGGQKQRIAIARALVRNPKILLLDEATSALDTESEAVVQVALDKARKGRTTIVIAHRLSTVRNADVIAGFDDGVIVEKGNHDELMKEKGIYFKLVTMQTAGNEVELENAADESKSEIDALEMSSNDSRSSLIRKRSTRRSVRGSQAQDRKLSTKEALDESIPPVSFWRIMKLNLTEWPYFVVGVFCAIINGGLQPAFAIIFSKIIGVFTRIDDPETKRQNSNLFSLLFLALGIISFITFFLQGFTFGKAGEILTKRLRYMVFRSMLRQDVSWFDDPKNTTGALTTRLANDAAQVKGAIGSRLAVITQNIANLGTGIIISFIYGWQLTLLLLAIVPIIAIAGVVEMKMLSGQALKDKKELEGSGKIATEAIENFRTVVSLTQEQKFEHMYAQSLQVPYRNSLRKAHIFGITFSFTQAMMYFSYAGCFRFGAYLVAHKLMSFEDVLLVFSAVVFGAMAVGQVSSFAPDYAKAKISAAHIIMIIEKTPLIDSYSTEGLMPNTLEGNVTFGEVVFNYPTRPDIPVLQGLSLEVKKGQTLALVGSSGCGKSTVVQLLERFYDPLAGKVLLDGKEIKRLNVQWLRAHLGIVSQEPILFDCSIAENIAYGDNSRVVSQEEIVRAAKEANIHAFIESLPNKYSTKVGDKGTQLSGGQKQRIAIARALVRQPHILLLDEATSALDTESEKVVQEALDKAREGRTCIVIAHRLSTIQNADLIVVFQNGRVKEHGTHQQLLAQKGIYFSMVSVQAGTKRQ
"efflux ratio at 60 min, 1 µM (MDR1 (P-gp))","Papp A→B at 60 min, 1 µM (MDR1 (P-gp)) [×10⁻⁶ cm/s]",IC50 (NF-κB pathway) [nM],IC50 (NLRP3 inflammasome) [nM],SMILES
13,4.7,> 30000,8,"CN1C[C@H](F)C[C@@H](Nc2nnc(-c3ccc(F)cc3O)c3c2COCC3)C1 [Example 219, 5-fluoro-2-(4-(((3R,5R)-5-fluoro-1-methylpiperidin-3-yl)amino)-7,8-dihydro-5H-pyrano[3,4-d]pyridazin-1-yl)phenol]"
25,2,> 30000,155,"COCCN1CCC[C@@H](Nc2nnc(-c3ccc(C)cc3O)c3c2COCC3)C1 [Example 233, (R)-2-(4-((1-(2-methoxyethyl)piperidin-3-yl)amino)-7,8-dihydro-5H-pyrano[3,4-d]pyridazin-1-yl)-5-methylphenol]"
9,2.1,> 30000,2,"CN1C[C@H](F)C[C@@H](Nc2nnc(-c3ccc(Cl)cc3O)c3c2COCC3)C1 [Example 212, 5-chloro-2-(4-(((3R,5R)-5-fluoro-1-methylpiperidin-3-yl)amino)-7,8-dihydro-5H-pyrano[3,4-d]pyridazin-1-yl)phenol]"
7,1.3,> 10000,121,"Cc1ccc(-c2nnc(N[C@@H]3CCCC[C@H]3O)c3c2COCC3)c(O)c1 [Example 230, 2-(1-(((1R,2R)-2-hydroxycyclohexyl)amino)-7,8-dihydro-5H-pyrano[3,4-d]pyridazin-4-yl)-5-methylphenol]"
30,1,> 30000,3,"COc1ccc(-c2nnc(N[C@@H]3CCCN(C)C3)c3c2CCOC3)c(O)c1 [Example 221, (R)-5-methoxy-2-(4-((1-methylpiperidin-3-yl)amino)-7,8-dihydro-5H-pyrano[3,4-d]pyridazin-1-yl)phenol]"
41,0.6,> 30000,5,"CN1C[C@H](F)C[C@@H](Nc2nnc(-c3ccc(C4CC4)cc3O)c3c2COCC3)C1 [Example 238, 5-cyclopropyl-2-(4-(((3R,5R)-5-fluoro-1-methylpiperidin-3-yl)amino)-7,8-dihydro-5H-pyrano[3,4-d]pyridazin-1-yl)phenol]"
39,1.2,> 30000,11,"CN1C[C@H](F)C[C@@H](Nc2nnc(-c3ccc(C(F)F)cc3O)c3c2COCC3)C1 [Example 239, 5-(difluoromethyl)-2-(4-(((3R,5R)-5-fluoro-1-methylpiperidin-3-yl)amino)-7,8-dihydro-5H-pyrano[3,4-d]pyridazin-1-yl)phenol]"
9,1.5,> 30000,8,"Cc1ccc(-c2nnc(N[C@@H]3C[C@@H](F)CN(C)C3)c3c2CCOC3)c(O)c1 [Example 220, 2-(4-(((3R,5R)-5-fluoro-1-methylpiperidin-3-yl)amino)-7,8-dihydro-5H-pyrano[3,4-d]pyridazin-1-yl)-5-methylphenol]"
10,1.6,> 30000,11,"COc1ccc(-c2nnc(N[C@@H]3C[C@@H](F)CN(C)C3)c3c2CCOC3)c(O)c1 [Example 237, 2-(4-(((3R,5R)-5-fluoro-1-methylpiperidin-3-yl)amino)-7,8-dihydro-5H-pyrano[3,4-d]pyridazin-1-yl)-5-methoxyphenol]"
6,1,> 10000,36,"Cc1ccc(-c2nnc(N[C@@H]3CCCC[C@H]3O)c3c2CCOC3)c(O)c1 [Example 229, 2-(4-(((1R,2R)-2-hydroxycyclohexyl)amino)-7,8-dihydro-5H-pyrano[3,4-d]pyridazin-1-yl)-5-methylphenol]"
10,2.2,> 30000,7,"CN1C[C@H](F)C[C@@H](Nc2nnc(-c3ccc(OC(F)(F)F)cc3O)c3c2COCC3)C1 [Example 236, 2-(4-(((3R,5R)-5-fluoro-1-methylpiperidin-3-yl)amino)-7,8-dihydro-5H-pyrano[3,4-d]pyridazin-1-yl)-5-(trifluoromethoxy)phenol]"
14,3.1,> 30000,28,"CN1C[C@H](F)C[C@@H](Nc2nnc(-c3ccccc3O)c3c2COCC3)C1 [Example 213, 2-(4-(((3R,5R)-5-fluoro-1-methylpiperidin-3-yl)amino)-7,8-dihydro-5H-pyrano[3,4-d]pyridazin-1-yl)phenol]"
21,1.3,> 30000,9,"CN1CCC[C@@H](Nc2nnc(-c3ccccc3O)c3c2COCC3)C1 [Example 226, (R)-2-(4-((1-methylpiperidin-3-yl)amino)-7,8-dihydro-5H-pyrano[3,4-d]pyridazin-1-yl)phenol]"
26,1.2,> 30000,2,"Cc1ccc(-c2nnc(N[C@@H]3CCCN(C)C3)c3c2CCOC3)c(O)c1 [Example 218, (R)-5-methyl-2-(4-((1-methylpiperidin-3-yl)amino)-7,8-dihydro-5H-pyrano[3,4-d]pyridazin-1-yl)phenol]"
12,1.5,> 30000,6,"CN1C[C@H](F)C[C@@H](Nc2nnc(-c3ccc(C(F)(F)F)cc3O)c3c2COCC3)C1 [Example 234, 2-(4-(((3R,5R)-5-fluoro-1-methylpiperidin-3-yl)amino)-7,8-dihydro-5H-pyrano[3,4-d]pyridazin-1-yl)-5-(trifluoromethyl)phenol]"
–,–,> 30000,373,"COc1ccc(-c2nnc(N[C@@H]3C[C@@H](F)CN(C)C3)c3c2CCOC3)c(C(F)(F)F)c1 [Example 216, N-((3R,5R)-5-fluoro-1-methylpiperidin-3-yl)-1-(4-methoxy-2-(trifluoromethyl)phenyl)-7,8-dihydro-5H-pyrano[3,4-d]pyridazin-4-amine]"
–,–,> 30000,270,"COc1ccc(-c2nnc(NC3CCCN(C)C3)c3ccncc23)cc1 (centres unmarked) [Example 73, 4-(4-methoxyphenyl)-N-(1-methylpiperidin-3-yl)pyrido[3,4-d]pyridazin-1-amine]"
–,–,> 30000,152,"CN1C[C@H](F)C[C@@H](Nc2nnc(-c3ccc(Cl)cc3F)c3ccncc23)C1 [Example 184, 1-(4-chloro-2-fluorophenyl)-N-((3R,5R)-5-fluoro-1-methylpiperidin-3-yl)pyrido[3,4-d]pyridazin-4-amine]"
–,–,> 30000,49,"COc1ccc(-c2nnc(N[C@@H]3CCCN(C)C3)c3c2CCOC3)cc1 [Example 222, (R)-1-(4-methoxyphenyl)-N-(1-methylpiperidin-3-yl)-7,8-dihydro-5H-pyrano[3,4-d]pyridazin-4-amine]"
–,–,> 30000,2260,"Clc1ccc(-c2nnc(Nc3ccccc3)c3ccccc23)cc1 [Example 153, 4-(4-chlorophenyl)-N-phenylphthalazin-1-amine]"
–,–,23400,66,"Clc1ccc(-c2nnc(NC3CCCN(Cc4ccccc4)C3)c3ccccc23)cc1 (centres unmarked) [Example 155, N-(1-benzylpiperidin-3-yl)-4-(4-chlorophenyl)phthalazin-1-amine]"
–,–,> 30000,10,"C[C@]1(O)C[C@@H](Nc2nnc(-c3ccc(Cl)cc3O)c3ccncc23)C1 [Example 95, cis-5-chloro-2-(4-((-3-hydroxy-3-methylcyclobutyl)amino)pyrido[3,4-d]pyridazin-1-yl)phenol]"
